Read-outs that look alike come from different tables or passages of the source.
Legend:
[1] = 5 mg/day of pramipexole, cited from earlier work
[2] = tested on: dopaminergic neurons in a mouse PD model; details: cited from earlier work
[3] = doses approved for motor symptoms of PD; 535 PD patients; cited from earlier work
[4] = biological target: human wild-type alpha-synuclein (Homo sapiens, UniProt P37840); details: in vitro; by H2O2 plus cytochrome c; cited from earlier work
[5] = for MTD-1 (Pramipexole alone): Period 1
Method: The starting dose of pramipexole was 0.5 mg and the dose was increased daily by 0.5 mg increments.
When a subject reached FID-1 on pramipexole alone, the subject was washed out for at least 5 days, and then entered Period 2 of the study during which the subject received single daily oral doses of pramipexole starting at 0.5 mg and titrated upward by 0.5 mg increments, together with oral aprepitant (80 mg) until subjects again reached an intolerable dose defined as above. The FID on oral pramipexole plus oral aprepitant was referred to as FID-2.
If a subject reached FID-2 during Period 2 at the same or lower dose than FID-1, and providing the investigator judged there were no safety issues and the subject was consenting, the subject received the same dose of pramipexole as the FID-2 dose together with a higher dose of oral aprepitant (120 mg) on the next day and the protocol specified that said subject should continue with the remainder of the dose titration with the higher dose of oral aprepitant (120 mg) until they reach the intolerable dose (FID2+). All other provisions of the protocol remained unchanged. Assessments were the same as those planned for the dose escalation day.
In addition, a laboratory panel was taken at screening and at the end of the study.

[6] = biological target: alpha-synuclein in human neuroblastoma SH-SY5Y cells (Homo sapiens, UniProt P37840); details: cited from earlier work
[7] = biological target: synuclein (Homo sapiens, UniProt P37840); details: in vitro; cited from earlier work

CCCN[C@H]1CCc2nc(N)sc2C1 [Pramipexole, (S)-6-propylamino-4,5,6,7-tetrahydro-1,3-benzothiazole-2-amine]
Nausea [1]: 76 % of patients | Vomiting [1]: 39 % of patients | Patients not able to complete the study ([1]; presumably because of intolerable GI adverse events): 36 % of patients | Toxic effects of rotenone on dopaminergic neurons ([2]; mouse PD model): inhibits the toxic effects of rotenone | Immunoreactivity for alpha-synuclein ([2]; rotenone mouse PD model): reducing immunoreactivity for alpha-synuclein | Neuroprotective (disease modifying) activity [3]: failed to evidence neuroprotective (i.e., disease modifying) activity | Oligomerization of human wild-type alpha-synuclein [4]: decreases the in vitro oligomerization | MTD-1 (Pramipexole alone) ([5]; Subject 1001): 2.0 mg | MTD-1 (Pramipexole alone) ([5]; Subject 1006, NA, not tolerated at 0.5 mg): NA (not tolerated | MTD-1 (Pramipexole alone) ([5]; Subject 1007): 4.0 mg | MTD-1 (Pramipexole alone) ([5]; Subject 1008): 1.0 mg | Reaching of FID-1 ([5]; human, in vivo): All subjects reached FID-1 | Dose limiting toxicity ([5]; in vivo): gastro-intestinal adverse events | Aggregation of alpha-synuclein [6]: inhibit the aggregation of alpha-synuclein | Synuclein oligomer formation [7]: diminishes synuclein oligomer formation

Reference: US11160809B2, “NK1-antagonist combination and method for treating synucleinopathies” (priority 2017, dated 2021)
